This note sets out measurements from patent US20250093263A1, “FRET-BASED ASSAYS” (The General Hospital Corporation, priority 2021, published 2025).

Data set [1] has as its target T1, WT Keap1 (tag-free, full-length) (Homo sapiens, UniProt Q14145). Briefly: biochemical.
For data set [2], the target named is T1, WT Keap1 (tag-free, full-length). Briefly: Keap1 TR-FRET Assay 2 (CDDO-FITC/Cora-1-KL9).
Data set [3] concerns the target T2, Keap1 (His/GST) (Homo sapiens, UniProt Q14145). In words: Keap1 TR-FRET Assay 3 (CDDO-FITC/Tb-Anti-6xHis). Type of data set: binding. (In TR-FRET formats the signal depends on donor and acceptor labels being close together.)
Data set [4] addresses T1, WT Keap1 (tag-free, full-length). Briefly: biochemical. The following applies: read-out: Assay 1: % at 100.
The target of data set [5] is T2, Keap1 (His/GST). Briefly: biochemical.
The conditions of data set [6]: pH 7.4, 1-octanol / sodium phosphate buffer.
In data set [7] the target is T3, PfcProRS (Plasmodium falciparum, UniProt Q8I5R7).
T3 construct: made in house; host or cells: SoluBL-21 E. coli
Briefly: biochemical. The class given is binding. The settings on record: PfcProRS KD, absence of substrates (0 μM ATP).
Method: (§1) A stock solution containing CoraFluor-1-Halo-labeled HT-PfcProRS or CoraFluor-1-Halo-labeled HT-HsProRS at the concentration specified for each experiment was prepared in assay buffer (50 mM Tris, pH 7.5, 20 mM KCl, 10 mM MgCl2, 0.05% Tween-20, 1 mM dithiothreitol, and 0.5 mg/mL BSA). […] Plates were mixed on an Ika MTS 2/4 Digital Microtiter Shaker at 750 rpm for 2 min, centrifuged at 1,000×g at 25° C. for 1 min. and allowed to equilibrate at room temperature for 2 h before TR-FRET measurements were taken. […] PRISM 9 (GraphPad) was used to perform non-linear regression analysis (one site—specific binding), plot dose-response curves, and calculate KD values.
(§2) A Multidrop Combi Reagent Dispenser (ThermoFisher Scientific) was used to dispense 20 μL of 2× protein solution into each well. […] Plates were mixed on an Ika MTS 2/4 Digital Microtiter Shaker at 750 rpm for 2 min, centrifuged at 1,000×g at 25° C. for I min, and allowed to equilibrate for 2 h at room temperature before TR-FRET measurements were taken.
(§3) PRISM 9 (GraphPad) was used to perform non-linear regression analysis (log(inhibitor) vs. response—Variable slope (four parameters)), plot dose-response curves, and calculate iC50 values.
(§4) Test compounds were dispensed in duplicate, triplicate, or sextuplicate dose-response format using a D300 digital dispenser (Hewlett Packard). […] Plates were mixed on an Ika MTS 2/4 Digital Microtiter Shaker at 750 rpm for 2 min, centrifuged at 1,000×g at 25° C. for 1 min, and allowed to equilibrate for 2 h at room temperature.
(§5) GraphPad PRISM was used to perform non-linear regression (log(inhibitor) vs. response—Variable slope (four parameters)), plot dose-response curves, and calculate IC50 values.
(§6) This assay was generally conducted in the same manner as the CoraFluor-1-Halo format with minor differences. […] Each well was supplemented with 1 nM CoraFluor-1-Pfp-labeled anti-His6 antibody before the 2 h incubation.
(§7) TR-FRET measurements were acquired in kinetic mode (1 read every ˜45 s) for at least 10 min.

Data set [8] addresses T4, HsProRS (Homo sapiens, UniProt P07814).
T4 construct: made in house; host or cells: SoluBL-21 E. coli
T4 sequence (P07814 996-1512): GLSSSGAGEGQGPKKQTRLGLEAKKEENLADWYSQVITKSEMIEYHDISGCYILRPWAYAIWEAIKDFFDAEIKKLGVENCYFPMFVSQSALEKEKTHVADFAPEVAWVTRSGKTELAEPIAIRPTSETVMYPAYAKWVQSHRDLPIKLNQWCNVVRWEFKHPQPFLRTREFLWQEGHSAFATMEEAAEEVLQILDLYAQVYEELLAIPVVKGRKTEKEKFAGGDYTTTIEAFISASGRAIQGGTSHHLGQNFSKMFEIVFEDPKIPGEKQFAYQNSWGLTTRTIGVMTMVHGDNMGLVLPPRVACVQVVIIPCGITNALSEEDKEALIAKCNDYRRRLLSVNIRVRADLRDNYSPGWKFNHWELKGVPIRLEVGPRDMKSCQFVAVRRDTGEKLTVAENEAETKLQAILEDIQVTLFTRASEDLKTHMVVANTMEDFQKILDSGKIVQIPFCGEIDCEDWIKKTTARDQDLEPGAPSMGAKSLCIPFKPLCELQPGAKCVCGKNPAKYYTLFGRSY
Briefly: TR-FRET ProRS ligand displacement / saturation binding assay, HsProRS. The following applies: absence of substrates; read-out: HsProRS (KD [nM]) −.
Method: as §1, §2, §3, §4, §5, §6, §7

The target of data set [9] is T5, HsGluProRS (Homo sapiens, UniProt P07814).
T5 construct: assay was developed utilizing native proteins in cell lysate or intact cells; endogenous in cells
In words: HsGluProRS TR-FRET in HEK293 lysate. The class given is binding. The settings on record: 250 nM tracer, serially diluted HEK293T lysate, anti-HsGluProRS antibodies. From the text:
Freshly prepared HEK293 cell lysates were serial diluted into flat-bottom, white 384-well plates (Corning 3572).
Abcam ab31531 was raised against an Abcam-proprietary, recombinant, full-length HsGluProRS protein. Proteintech 67712-1-Ig was raised against a peptide encoding HsGluProRS residues 1163-1512. Cell Signaling Technology CST45956 was raised against a peptide encoding residues surrounding HsGluProRS^P978. CTK0101 (ChromTek) anti-Rabbit-IgG secondary nanobody (single domain nanobody) was previously labeled with CoraFluor-1-Pfp and validated to bind Rabbit IgG antibodies with high affinity.
For the TR-FRET assay, HEK293T lysate was serially diluted into 384-well plates containing constant concentrations of tracer (either 250 nM MAT574 for ProRS or 250 nM MAT579 for GluRS), one of the antibodies (5 nM), and for the unlabeled antibodies, CoraFluor-1-Pfp labeled nano secondary (20 nM).

In data set [10] the target is T6, MtbPheRS (Mycobacterium tuberculosis phenylalanyl-tRNA synthetase) (Mycobacterium tuberculosis, UniProt P9WFU3).
T6 construct: made in house; host or cells: Mycobacterium
Briefly: PheRS activity-based assay, MtbPheRS. The class given is biochemical.

The target of data set [11] is T7, HscPheRS (human cytoplasmic phenylalanyl-tRNA synthetase) (Homo sapiens, UniProt Q9Y285).
T7 construct: made in house; host or cells: E. coli
T7 sequence (Q9Y285 1-508): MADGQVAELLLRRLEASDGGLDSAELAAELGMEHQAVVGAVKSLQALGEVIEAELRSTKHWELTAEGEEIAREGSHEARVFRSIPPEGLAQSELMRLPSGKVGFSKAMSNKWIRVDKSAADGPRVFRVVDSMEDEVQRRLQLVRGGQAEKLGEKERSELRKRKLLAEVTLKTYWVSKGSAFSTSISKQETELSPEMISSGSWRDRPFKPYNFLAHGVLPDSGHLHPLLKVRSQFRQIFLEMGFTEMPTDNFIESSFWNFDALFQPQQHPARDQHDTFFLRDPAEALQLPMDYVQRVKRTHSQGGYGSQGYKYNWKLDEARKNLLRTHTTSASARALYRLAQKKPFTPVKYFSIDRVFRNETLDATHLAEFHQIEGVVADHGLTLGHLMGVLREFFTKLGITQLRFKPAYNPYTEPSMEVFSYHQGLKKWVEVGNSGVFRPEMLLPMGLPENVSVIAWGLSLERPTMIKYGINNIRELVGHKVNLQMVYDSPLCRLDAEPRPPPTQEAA
T7 sequence (Q9NSD9 1-589 partner): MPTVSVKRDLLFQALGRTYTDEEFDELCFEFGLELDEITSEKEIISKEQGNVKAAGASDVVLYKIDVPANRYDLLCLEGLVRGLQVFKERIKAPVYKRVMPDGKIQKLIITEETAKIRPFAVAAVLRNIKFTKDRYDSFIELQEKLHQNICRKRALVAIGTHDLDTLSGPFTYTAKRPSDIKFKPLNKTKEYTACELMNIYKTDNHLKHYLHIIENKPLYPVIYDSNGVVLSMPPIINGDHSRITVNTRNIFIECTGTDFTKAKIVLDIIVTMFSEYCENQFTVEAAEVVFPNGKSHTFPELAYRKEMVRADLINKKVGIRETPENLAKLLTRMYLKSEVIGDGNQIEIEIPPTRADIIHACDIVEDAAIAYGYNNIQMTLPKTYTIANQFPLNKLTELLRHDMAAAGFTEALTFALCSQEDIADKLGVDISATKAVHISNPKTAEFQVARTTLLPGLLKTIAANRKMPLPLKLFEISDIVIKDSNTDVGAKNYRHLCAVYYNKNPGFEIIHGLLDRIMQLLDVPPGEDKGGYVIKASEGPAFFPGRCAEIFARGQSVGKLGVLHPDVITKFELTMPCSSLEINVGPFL
Briefly: PheRS activity-based assay, HscPheRS. Type of data set: biochemical.

Where “and” joins values, the source holds several entries; their conditions need not be identical. Identical values can stand only once. Counter-ions that a name gives are not always drawn. Like-named read-outs stand apart in the source and are kept apart here.

T2 sequence (Q14145 whole entry): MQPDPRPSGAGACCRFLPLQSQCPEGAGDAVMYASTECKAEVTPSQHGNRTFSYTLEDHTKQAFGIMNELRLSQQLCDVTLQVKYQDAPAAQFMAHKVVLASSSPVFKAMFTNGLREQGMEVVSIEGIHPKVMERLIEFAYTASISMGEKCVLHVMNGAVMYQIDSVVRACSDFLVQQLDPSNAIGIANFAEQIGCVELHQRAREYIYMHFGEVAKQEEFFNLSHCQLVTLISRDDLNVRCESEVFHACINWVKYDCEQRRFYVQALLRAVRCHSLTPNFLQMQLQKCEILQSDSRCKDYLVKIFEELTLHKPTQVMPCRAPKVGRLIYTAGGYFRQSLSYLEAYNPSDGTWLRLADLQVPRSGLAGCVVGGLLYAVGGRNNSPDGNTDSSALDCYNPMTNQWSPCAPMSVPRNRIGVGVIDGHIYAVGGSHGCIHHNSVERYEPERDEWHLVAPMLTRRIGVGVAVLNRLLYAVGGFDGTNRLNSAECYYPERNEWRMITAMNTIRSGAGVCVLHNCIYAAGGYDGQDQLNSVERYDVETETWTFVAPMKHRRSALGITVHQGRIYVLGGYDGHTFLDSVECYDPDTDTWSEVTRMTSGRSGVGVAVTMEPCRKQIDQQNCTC
T1 sequence (Q14145 whole entry): as above
T5 sequence (P07814 whole entry): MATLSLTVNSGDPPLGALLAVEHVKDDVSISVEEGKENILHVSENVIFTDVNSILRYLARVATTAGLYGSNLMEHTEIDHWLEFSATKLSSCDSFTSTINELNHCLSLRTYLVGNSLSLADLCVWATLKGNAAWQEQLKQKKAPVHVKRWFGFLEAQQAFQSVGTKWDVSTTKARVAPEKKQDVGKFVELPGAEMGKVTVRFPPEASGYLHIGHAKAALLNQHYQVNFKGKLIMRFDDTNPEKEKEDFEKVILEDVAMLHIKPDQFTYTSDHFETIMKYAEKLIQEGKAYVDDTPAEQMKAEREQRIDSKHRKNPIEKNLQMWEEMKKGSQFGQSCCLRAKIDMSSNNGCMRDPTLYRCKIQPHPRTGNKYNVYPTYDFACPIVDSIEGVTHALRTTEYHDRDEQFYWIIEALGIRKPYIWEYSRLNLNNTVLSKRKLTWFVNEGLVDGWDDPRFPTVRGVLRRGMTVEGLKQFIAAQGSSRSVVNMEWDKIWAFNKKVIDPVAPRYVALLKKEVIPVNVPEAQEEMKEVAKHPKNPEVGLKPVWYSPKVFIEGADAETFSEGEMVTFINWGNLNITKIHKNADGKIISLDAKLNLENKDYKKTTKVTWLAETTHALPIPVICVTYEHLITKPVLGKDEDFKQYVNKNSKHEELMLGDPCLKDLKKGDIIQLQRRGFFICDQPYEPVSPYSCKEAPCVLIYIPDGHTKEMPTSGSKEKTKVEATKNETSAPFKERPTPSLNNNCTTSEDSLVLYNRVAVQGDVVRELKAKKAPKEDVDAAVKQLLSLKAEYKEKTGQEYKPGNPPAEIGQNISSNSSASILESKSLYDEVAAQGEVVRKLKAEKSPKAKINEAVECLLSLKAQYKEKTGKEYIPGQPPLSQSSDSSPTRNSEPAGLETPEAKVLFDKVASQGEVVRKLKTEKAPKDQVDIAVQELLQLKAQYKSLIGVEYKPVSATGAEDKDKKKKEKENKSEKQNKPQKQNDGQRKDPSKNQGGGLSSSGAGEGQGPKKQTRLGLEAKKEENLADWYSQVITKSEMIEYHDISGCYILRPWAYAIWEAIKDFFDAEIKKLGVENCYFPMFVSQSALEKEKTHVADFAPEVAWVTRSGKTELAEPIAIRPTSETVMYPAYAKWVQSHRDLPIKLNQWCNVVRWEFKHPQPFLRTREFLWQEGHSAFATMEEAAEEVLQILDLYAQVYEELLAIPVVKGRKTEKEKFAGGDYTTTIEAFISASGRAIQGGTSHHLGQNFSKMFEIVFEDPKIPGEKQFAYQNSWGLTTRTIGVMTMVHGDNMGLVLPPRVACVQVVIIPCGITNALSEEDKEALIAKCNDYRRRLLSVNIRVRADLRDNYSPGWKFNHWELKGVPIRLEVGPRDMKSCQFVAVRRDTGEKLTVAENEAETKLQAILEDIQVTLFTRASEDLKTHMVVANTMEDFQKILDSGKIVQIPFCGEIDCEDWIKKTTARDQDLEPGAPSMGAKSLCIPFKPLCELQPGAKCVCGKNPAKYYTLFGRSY
T6 sequence (P9WFU3 whole entry): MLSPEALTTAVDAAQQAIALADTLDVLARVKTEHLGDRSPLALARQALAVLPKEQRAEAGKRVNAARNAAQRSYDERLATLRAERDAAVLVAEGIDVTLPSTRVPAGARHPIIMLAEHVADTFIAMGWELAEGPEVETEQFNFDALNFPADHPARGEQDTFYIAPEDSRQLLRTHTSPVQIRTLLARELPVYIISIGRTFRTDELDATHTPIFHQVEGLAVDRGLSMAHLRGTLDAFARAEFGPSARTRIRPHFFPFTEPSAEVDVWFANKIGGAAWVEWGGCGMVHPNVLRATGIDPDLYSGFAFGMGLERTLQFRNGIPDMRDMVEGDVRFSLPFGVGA
T6 sequence (P9WFU1 whole entry, further chain): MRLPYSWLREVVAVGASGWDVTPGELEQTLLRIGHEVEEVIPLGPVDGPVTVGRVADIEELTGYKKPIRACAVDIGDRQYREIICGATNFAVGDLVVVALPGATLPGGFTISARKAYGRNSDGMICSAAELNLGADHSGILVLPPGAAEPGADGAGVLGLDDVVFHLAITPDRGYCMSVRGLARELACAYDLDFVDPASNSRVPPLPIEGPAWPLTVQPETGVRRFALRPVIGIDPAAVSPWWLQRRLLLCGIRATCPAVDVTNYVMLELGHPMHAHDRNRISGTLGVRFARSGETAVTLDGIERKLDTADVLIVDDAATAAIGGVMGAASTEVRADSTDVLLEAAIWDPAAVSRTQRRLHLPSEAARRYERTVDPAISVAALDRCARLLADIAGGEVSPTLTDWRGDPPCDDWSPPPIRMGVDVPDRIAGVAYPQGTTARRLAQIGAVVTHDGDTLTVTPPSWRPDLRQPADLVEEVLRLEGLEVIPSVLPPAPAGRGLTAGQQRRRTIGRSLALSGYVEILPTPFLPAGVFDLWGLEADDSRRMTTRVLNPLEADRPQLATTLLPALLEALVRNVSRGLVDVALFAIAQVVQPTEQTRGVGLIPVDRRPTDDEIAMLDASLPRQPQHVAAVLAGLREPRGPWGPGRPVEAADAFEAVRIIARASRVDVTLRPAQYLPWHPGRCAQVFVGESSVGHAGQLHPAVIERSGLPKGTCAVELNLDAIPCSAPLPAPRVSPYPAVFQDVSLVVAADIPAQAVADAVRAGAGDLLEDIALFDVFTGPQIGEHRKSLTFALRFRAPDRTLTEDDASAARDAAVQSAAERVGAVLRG
T3 sequence (Q8I5R7 249-746): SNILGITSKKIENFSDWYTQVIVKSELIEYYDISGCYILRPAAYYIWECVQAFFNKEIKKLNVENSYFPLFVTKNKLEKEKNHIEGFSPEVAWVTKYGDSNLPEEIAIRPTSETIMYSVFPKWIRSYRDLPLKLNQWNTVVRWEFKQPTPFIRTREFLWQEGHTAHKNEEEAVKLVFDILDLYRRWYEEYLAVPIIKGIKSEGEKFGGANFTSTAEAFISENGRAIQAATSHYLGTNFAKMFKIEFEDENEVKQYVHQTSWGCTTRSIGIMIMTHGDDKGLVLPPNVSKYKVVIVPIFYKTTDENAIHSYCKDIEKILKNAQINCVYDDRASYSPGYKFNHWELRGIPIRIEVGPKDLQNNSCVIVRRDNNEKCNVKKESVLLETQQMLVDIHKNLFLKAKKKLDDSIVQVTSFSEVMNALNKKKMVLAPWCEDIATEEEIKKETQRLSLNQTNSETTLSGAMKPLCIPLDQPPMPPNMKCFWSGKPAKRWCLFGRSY

As to `CC1(C)CC[C@]2(C(=O)NCCCOCCOCCOCCCNC(=S)Nc3ccc(-c4c5ccc(=O)cc-5oc5cc(O)ccc45)c(C(=O)O)c3)CC[C@]3(C)[C@H](C(=O)C=C4[C@@]5(C)C=C(C#N)C(=O)C(C)(C)[C@@H]5CC[C@]43C)[C@@H]2C1` [CDDO-FITC, 5-(3-(1-((4aS,6aR,6bS,8aR,12aS,14aR,14bS)-11-cyano-2,2,6a,6b,9,9,12a-heptamethyl-10,14-dioxo-1,3,4,5,6,6a,6b,7,8,8a,9,10,12a,14,14a,14b-hexadecahydropicen-4a(2H)-yl)-1-oxo-6,9,12-trioxa-2-azapentadecan-15-yl)thioureido)-2-(6-hydroxy-3-oxo-3H-xanthen-9-yl)benzoic acid], the Kd worked out at 164 nM in [1]; 164 ± 37.1 nM in [2] (Kd of CDDO-FITC, saturation binding at fixed Cora-1-KL9 and Keap1, one-site model).

As to `Cc1sc2c(c1C)C(c1ccc(Cl)cc1)=NC(CC(=O)NCCCOCCOCCOCCCNC(=O)[C@]13CCC(C)(C)C[C@H]1[C@H]1C(=O)C=C4[C@@]5(C)C=C(C#N)C(=O)C(C)(C)[C@@H]5CC[C@@]4(C)[C@]1(C)CC3)c1nnc(C)n1-2` (stereo partly drawn) [CDDO-JQ1, (4aS,6aR,6bS,8aR,12aS,14aR,14bS)-N-(1-(4-(4-chlorophenyl)-2,3,9-trimethyl-6H-thieno[3,2-f][1,2,4]triazolo[4,3-a][1,4]diazepin-6-yl)-2-oxo-7,10,13-trioxa-3-azahexadecan-16-yl)-11-cyano-2,2,6a,6b,9,9,12a-heptamethyl-10,14-dioxo-1,3,4,5,6,6a,6b,7,8,8a,9,10,12a,14,14a,14b-hexadecahydropicene-4a(2H)-carboxamide], the IC50 was determined as 2680 nM in [3], 3.37 µM in [1] and 495 µM in data set [5]. Besides, the inhibition at 100 µM in data set [4] was less than 5%. For the same molecule, the Kd in [1] worked out at 1770 nM. Further, the “fold less potent than CDDO (CDDO/CDDO-Me)” value in [2] (Assay-2) was > 250 fold and > 500 fold.

Consider `COC(=O)[C@]12CCC(C)(C)C[C@H]1[C@H]1C(=O)C=C3[C@@]4(C)C=C(C#N)C(=O)C(C)(C)[C@@H]4CC[C@@]3(C)[C@]1(C)CC2` [CDDO-Me, bardoxolone methyl], for which the IC50 in data set [3] was 11 nM; in [1] it was 0.024 µM; in [5] it was 103 µM. Also, the inhibition at 100 µM in data set [4] was less than 10%. The same molecule returned a Kd in data set [1] of 13 nM.

`O=C(CCCCCN1CCN2CCNC(=O)c3cccc(c3[O-])C(=O)NCCN(CCNC(=O)c3cccc(c3[O-])C1=O)CCN1CCNC(=O)c3cccc(c3[O-])C(=O)NCCN(CCNC(=O)c3cccc(c3[O-])C(=O)NCC1)CC2)NCCOCCOCCCCCCCl.[Tb+3]` [Cora-1-Halo]: in data set [6], the “log D” value was −0.7.

Take `O=C(CCCCCN1CCN2CCNC(=O)c3cc(Cl)cc(c3[O-])C(=O)NCCN(CCNC(=O)c3cc(Cl)cc(c3[O-])C1=O)CCN1CCNC(=O)c3cc(Cl)cc(c3[O-])C(=O)NCCN(CCNC(=O)c3cc(Cl)cc(c3[O-])C(=O)NCC1)CC2)NCCOCCOCCCCCCCl.[Tb+3]` [Cora-2-Halo]: in data set [6], the “log D” value amounted to 0.7.

For the molecule `COC(=O)/C=C/C(=O)OC` [DMF, dimethyl fumarate], the IC50 in data set [3] is 64800 nM; in data set [1], 129 µM; in data set [5] it was 266 µM. Also, the inhibition at 100 µM in [4] is less than 5%. The Kd in data set [1] was 67400 nM.

Take `Nc1ncnc2c1ncn2[C@@H]1O[C@H](CN(CCCCCCOCCOCCNC(=O)c2ccc(C(=O)O)c(-c3c4ccc(=O)cc-4oc4cc(O)ccc34)c2)S(=O)(=O)NC(=O)[C@@H]2CCCN2)[C@@H](O)[C@H]1O` [MAT574, 4-((2-(2-((6-((N-(L-prolyl)sulfamoyl)(((2R,3S4R,5R)-5-(6-amino-9H-purin-9-yl)-3,4-dihydroxytetrahydrofuran-2-yl)methyl)amino)hexyl)oxy)ethoxy)ethyl)carbamoyl)-2-(6-hydroxy-3-oxo-3H-xanthen-9-yl)benzoic acid]: the Kd in [7] amounted to 2270 nM; in data set [8] it was 72.2 nM. The “TR-FRET signal” value in data set [9] is on record as “specific TR-FRET signal”.

Turning to `Nc1ncnc2c1ncn2[C@@H]1O[C@H](CN(CCCCCCOCCOCCNC(=O)c2ccc(C(=O)O)c(-c3c4ccc(=O)cc-4oc4cc(O)ccc34)c2)S(=O)(=O)NC(=O)[C@@H](N)CCC(=O)O)[C@@H](O)[C@H]1O` [MAT579, 4-((2-(2-((6-((N-(L-glutamyl)sulfamoyl)(((2R,3S,4R,5R)-5-(6-amino-9H-purin-9-yl)-3,4-dihydroxytetrahydrofuran-2-yl)methyl)amino)hexyl)oxy)ethoxy)ethyl)carbamoyl)-2-(6-hydroxy-3-oxo-3H-xanthen-9-yl)benzoic acid], the “TR-FRET signal” value in data set [9] was “No TR-FRET signal was observed”.

Consider `Nc1ncnc2c1ncn2[C@@H]1O[C@H](CNS(=O)(=O)NC(=O)[C@@H](N)Cc2ccccc2)[C@@H](O)[C@H]1O` [PheSNA, (S)-amino-N-(N-(((2R,3S,4R,5R)-5-(6-amino-9H-purin-9-yl)-3,4-dihydroxytetrahydrofuran-2-y)methyl)sulfamoyl)-3-phenylpropanamide], for which the half-inhibitory concentration (IC50) in data set [10] was 2 µM; in [11], 140 nM.

As to “(S)-2-amino-N-(N-(((2R,3S,4R,5R)-S-(6-amino-9H-purin-9-yl)-3,4-dihydroxytetrahydrofuran-2-yl)methyl)-N-(6-(2-(2-aminoethoxy)ethoxy)hexyl)sulfamoyl)-3-phenylpropanamide [MAT581]”, in data set [10] (phenylalanine 100 μM, ATP 200 μM), half-maximal inhibition (IC50) required 206 µM.

In general, Kd refers to the equilibrium constant for the complex coming apart. One may read the IC50 as the concentration that inhibits the measured activity by half. Usually log D stands for lipophilicity at a set pH, counting ionised and neutral species. Lower therefore signals lower lipophilicity.
